The text below walks through data of ChEMBL document CHEMBL1152011, “The first protoberberine alkaloid analogue with in vivo antimalarial activity” (Bioorg Med Chem Lett, 1994).

Active and inactive are the calls of the source. The calls are words filed in the database; no cut-off is given here.

Common to all, as to format: functional, organism-based
Experiment [1] has as its system Plasmodium falciparum. Nature of the experiment: In vitro inhibition of multidrug-resistant Plasmodium falciparum K1; […].
The subject of experiment [2] is Mus musculus. Briefly: In vivo antimalarial activity against Plasmodium chabaudi in BALB/c mice (Mus musculus) at a dose of 0.25 mg/kg; active. Further details: dose 0.25 mg/kg.
Experiment [3] concerns Plasmodium falciparum. Nature of the experiment: In vitro inhibition of multidrug-resistant Plasmodium falciparum K1.

By IC50 is commonly meant the concentration needed to halve the response being measured. A higher IC50 goes with weaker potency. `COc1cc2c(cc1OC)-c1cc3c(OC)c(OC)ccc3c[n+]1CC2.[Cl-]` displayed an IC50 in experiment [1] of 0.8 µg/mL.

On to `COc1cc2c(cc1OC)-c1c(N)c3cc(OC)c(OC)cc3c[n+]1CC2.[Cl-]`, for which the result in experiment [2] was Active. Also, the IC50 in experiment [1] worked out at 0.8 µg/mL.

For the compound `COc1ccc2cc3[n+](cc2c1OC)CCc1cc2c(cc1-3)OCO2.[Cl-]` [BERBERINE CHLORIDE], half-maximal inhibition in experiment [3] (IC50) was put at 0.36 µg/mL.

On to `COc1cc2c(cc1OC)-c1cc3cc(OC)c(OC)cc3c[n+]1CC2.[Cl-]`, for which the outcome in experiment [2] was Active. Also, in experiment [1], the IC50 was determined as 0.8 µg/mL.
